Where two headings read alike, the source gives them in different places.
Experiments:
CDK3/CycC = molecular target: T1, CDK3/CycC (Homo sapiens, UniProt Q00526); assay: CDK family panel, ADP-Glo; assay type: biochemical
T1 construct: ICE Bioscience Inc. (assay service)
Experimental: (§3) All the kinase activity were performed using an ADP-Glo kinase assay by ICE Bioscience Inc. (Beijing, China).

TAOK3 = molecular target: T2, TAOK3 (Homo sapiens, UniProt Q9H2K8); assay: ADP-Glo assay, TAOK3; assay type: biochemical; settings: read-out: IC50 against TAOK3
T2 construct: ICE Bioscience Inc. (assay service)

CDK1/CycE1 = molecular target: T3, CDK1/CycE1 (Homo sapiens, UniProt P06493); assay: CDK family panel, ADP-Glo; assay type: biochemical
T3 construct: ICE Bioscience Inc. (assay service)
Experimental: as §3

CDK3/CycE1 = molecular target: T4, CDK3/CycE1 (Homo sapiens, UniProt Q00526); assay: CDK family panel, ADP-Glo; assay type: biochemical
T4 construct: ICE Bioscience Inc. (assay service)
Experimental: (§4) All the kinase activity were performed using an ADP-Glo kinase assay by ICE Bioscience Inc. (Beijing, China). Kinome selectivity profiles (KINOMEscan profiling) and Kd detection were performed by Eurofins DiscoveryX Corporation (San Diego, CA, USA).

CDK14/CycY = molecular target: T5, CDK14/CycY (Homo sapiens, UniProt O94921); assay: CDK family panel, ADP-Glo; assay type: biochemical
T5 construct: ICE Bioscience Inc. (assay service)
Experimental: as §3

CDK1/CycA2 = molecular target: T6, CDK1/CycA2 (Homo sapiens, UniProt P06493); assay: CDK family panel, ADP-Glo; assay type: biochemical
T6 construct: ICE Bioscience Inc. (assay service)
Experimental: as §3

CDK7/CycH/MAT1 = molecular target: T7, CDK7/CycH/MAT1 (Homo sapiens, UniProt P50613); assay: CDK family panel, ADP-Glo; assay type: biochemical
T7 construct: ICE Bioscience Inc. (assay service)
T7 sequence (P50613 whole entry, species assumed): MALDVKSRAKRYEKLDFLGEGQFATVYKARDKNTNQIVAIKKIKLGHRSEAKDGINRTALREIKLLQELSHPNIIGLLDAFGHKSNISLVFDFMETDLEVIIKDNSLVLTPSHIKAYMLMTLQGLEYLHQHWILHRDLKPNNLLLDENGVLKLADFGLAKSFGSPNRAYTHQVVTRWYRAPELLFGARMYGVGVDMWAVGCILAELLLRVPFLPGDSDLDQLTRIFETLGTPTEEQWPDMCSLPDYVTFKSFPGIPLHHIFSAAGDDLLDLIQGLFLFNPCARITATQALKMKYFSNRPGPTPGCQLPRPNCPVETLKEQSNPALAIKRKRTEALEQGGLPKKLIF
T7 sequence (P51946 whole entry partner, species assumed): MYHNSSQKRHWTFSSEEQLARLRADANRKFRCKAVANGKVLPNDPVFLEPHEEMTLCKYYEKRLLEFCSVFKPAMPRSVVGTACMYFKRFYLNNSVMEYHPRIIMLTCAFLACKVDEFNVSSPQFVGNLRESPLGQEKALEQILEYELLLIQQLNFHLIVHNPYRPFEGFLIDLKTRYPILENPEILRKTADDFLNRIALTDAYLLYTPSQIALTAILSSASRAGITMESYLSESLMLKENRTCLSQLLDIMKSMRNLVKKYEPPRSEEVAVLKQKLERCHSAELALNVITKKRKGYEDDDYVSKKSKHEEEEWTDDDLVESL
T7 sequence (P51948 whole entry partner, species assumed): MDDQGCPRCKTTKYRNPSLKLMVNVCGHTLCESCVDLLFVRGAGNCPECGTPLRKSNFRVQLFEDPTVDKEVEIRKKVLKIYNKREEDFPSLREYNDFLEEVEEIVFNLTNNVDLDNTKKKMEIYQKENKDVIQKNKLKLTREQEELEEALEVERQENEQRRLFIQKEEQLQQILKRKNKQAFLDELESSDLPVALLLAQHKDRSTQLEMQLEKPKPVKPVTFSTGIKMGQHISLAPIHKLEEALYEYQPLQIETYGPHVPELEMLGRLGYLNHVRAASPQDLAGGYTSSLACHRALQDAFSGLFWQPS
Experimental: as §3

[1] = Pharmacokinetics study in mice; assay type: in vivo, ICR mice; settings: for AUC(0-t) / Cmax / Tmax / clearance / half-life / bioavailability: both sexes, ICR, mouse, plasma
VCaP cells = assay: Washout experiment, cell growth; assay type: cell-based, human; settings: VCaP cells treated 6 h, compound removed, 5 days in compound-free media
Experimental: (§1) The previously reported reversible inhibitor 10 was included for comparison. VCaP cells were treated with the compounds for 6 h, after which the compounds were removed, and the cells were cultured in compound-free media for 5 days.

CDK6/CycD1 = molecular target: T8, CDK6/CycD1 (Homo sapiens, UniProt Q00534); assay: CDK family panel, ADP-Glo; assay type: biochemical
T8 construct: ICE Bioscience Inc. (assay service)
T8 sequence (Q00534 whole entry, species assumed): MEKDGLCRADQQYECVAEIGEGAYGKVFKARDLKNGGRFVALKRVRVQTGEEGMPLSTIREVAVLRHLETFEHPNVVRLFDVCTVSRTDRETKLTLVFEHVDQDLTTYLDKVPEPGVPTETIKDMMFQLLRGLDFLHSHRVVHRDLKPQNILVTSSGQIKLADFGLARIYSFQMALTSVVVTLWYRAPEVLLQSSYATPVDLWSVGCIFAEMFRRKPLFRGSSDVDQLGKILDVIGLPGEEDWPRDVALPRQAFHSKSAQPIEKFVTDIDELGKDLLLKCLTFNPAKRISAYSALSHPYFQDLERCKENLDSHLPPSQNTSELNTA
T8 sequence (P24385 whole entry partner, species assumed): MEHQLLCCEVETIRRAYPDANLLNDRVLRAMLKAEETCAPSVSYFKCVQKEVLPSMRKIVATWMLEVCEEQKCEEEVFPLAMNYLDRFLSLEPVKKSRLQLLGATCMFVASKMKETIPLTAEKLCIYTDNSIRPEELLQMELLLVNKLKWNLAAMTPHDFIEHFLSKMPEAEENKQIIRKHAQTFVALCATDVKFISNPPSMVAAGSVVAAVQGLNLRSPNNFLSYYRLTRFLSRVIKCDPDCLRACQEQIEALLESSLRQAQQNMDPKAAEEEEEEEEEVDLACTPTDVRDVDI
Experimental: as §4

CDK4/CycD1 = molecular target: T9, CDK4/CycD1 (Homo sapiens, UniProt P11802); assay: CDK family panel, ADP-Glo; assay type: biochemical
T9 construct: ICE Bioscience Inc. (assay service)
Experimental: as §4

CDK8/CycC = molecular target: T10, CDK8/CycC (Homo sapiens, UniProt P49336); assay: CDK family panel, ADP-Glo; assay type: biochemical
T10 construct: ICE Bioscience Inc. (assay service)
T10 sequence (P49336 whole entry, species assumed): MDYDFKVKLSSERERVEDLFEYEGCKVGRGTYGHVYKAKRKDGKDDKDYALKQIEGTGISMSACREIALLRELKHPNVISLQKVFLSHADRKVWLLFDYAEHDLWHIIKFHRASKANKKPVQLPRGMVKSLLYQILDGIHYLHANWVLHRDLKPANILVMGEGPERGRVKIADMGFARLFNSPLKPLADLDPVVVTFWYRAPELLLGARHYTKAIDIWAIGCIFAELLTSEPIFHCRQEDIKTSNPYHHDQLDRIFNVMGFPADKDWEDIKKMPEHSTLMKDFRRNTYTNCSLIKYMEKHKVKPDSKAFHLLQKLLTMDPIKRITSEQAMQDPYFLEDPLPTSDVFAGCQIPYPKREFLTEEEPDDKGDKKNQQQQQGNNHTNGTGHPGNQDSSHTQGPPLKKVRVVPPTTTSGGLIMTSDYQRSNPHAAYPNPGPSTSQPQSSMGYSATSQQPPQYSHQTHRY
T10 sequence (P24863 whole entry partner, species assumed): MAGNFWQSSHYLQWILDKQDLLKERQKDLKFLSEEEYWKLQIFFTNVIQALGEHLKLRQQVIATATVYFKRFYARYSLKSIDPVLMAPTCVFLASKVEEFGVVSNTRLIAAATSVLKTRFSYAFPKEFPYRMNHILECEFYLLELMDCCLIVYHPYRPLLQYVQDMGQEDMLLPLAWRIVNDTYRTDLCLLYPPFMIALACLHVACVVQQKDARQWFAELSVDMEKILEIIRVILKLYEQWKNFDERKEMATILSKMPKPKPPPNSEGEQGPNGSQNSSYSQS
Experimental: as §3

CDK5/p25NCK = molecular target: T11, CDK5/p25NCK (Homo sapiens, UniProt Q00535); assay: CDK family panel, ADP-Glo; assay type: biochemical
T11 construct: ICE Bioscience Inc. (assay service)
T11 sequence (Q00535 whole entry): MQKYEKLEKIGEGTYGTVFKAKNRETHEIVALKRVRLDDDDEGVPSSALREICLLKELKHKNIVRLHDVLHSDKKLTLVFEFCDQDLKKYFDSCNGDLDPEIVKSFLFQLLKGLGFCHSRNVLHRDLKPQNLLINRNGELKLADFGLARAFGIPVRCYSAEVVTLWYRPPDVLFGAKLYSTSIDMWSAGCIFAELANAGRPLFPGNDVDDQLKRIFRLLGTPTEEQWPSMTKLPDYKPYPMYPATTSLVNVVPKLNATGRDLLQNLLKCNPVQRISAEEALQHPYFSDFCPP
T11 sequence (Q15078 99-307 partner): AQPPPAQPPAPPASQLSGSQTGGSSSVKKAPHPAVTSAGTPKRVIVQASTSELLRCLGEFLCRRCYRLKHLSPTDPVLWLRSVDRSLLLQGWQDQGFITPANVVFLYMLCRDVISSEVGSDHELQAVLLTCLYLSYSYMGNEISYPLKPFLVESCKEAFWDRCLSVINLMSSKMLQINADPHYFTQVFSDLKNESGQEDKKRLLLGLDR
Experimental: as §3

[2] = tested on: VCaP prostate cancer cells; assay: Cell proliferation assay (CellTiter-Glo), VCaP; assay type: cell-based, human; settings: cell growth inhibition, 5 days, CellTiter-Glo
Experimental: The kinase inhibitory activities of the compounds against CDK12 and CDK13 were preliminarily evaluated using the ADP-Glo kinase assay. Cell growth inhibition was determined in VCaP prostate cancer cells, which were characterized as being sensitive to CDK12/13 inhibition.[14]
(§2) Cells were seeded in 96-well plates and incubated at 37 °C and 5% CO2. After overnight incubation, serial dilutions of tested compounds were added to the plate. The assay was tested with Cell Titer-Glo (Promega) after 5 days. The luminescence signal was detected by the Infinite M1000 Pro plate reader (Tecan), and the IC50 values were calculated by GraphPad Prism 10.

MDA-MD-468 = assay: Cell viability panel; assay type: cell-based; settings: Homo sapiens, 120 h; breast cancer cells, 5 days of treatment
Experimental: as §2

DU145 = assay: Cell viability panel; assay type: cell-based; settings: Homo sapiens, DU-145, 120 h; prostate cancer cells, 5 days of treatment
Experimental: as §2

MFM223 = assay: Cell viability panel; assay type: cell-based; settings: Homo sapiens, MFM-223, 120 h; breast cancer cells, 5 days of treatment
Experimental: as §2

CB-AGPN = assay: Cell viability panel; assay type: cell-based; settings: Homo sapiens, 120 h; Ewing's sarcoma cells, 5 days of treatment
Experimental: as §2

CHLA10 = assay: Cell viability panel; assay type: cell-based; settings: Homo sapiens, 120 h; Ewing's sarcoma cells, 5 days of treatment
Experimental: as §2

SK-BR-3 = assay: Cell viability panel; assay type: cell-based; settings: Homo sapiens, SK-BR-3, 120 h; breast cancer cells, 5 days of treatment
Experimental: as §2

CDK5/p35NCK = molecular target: T12, CDK5/p35NCK (Homo sapiens, UniProt Q00535); assay: CDK family panel, ADP-Glo; assay type: biochemical
T12 construct: ICE Bioscience Inc. (assay service)
T12 sequence (Q00535 whole entry, species assumed): as the sequence (Q00535 whole entry) above
T12 sequence (Q15078 whole entry partner, species assumed): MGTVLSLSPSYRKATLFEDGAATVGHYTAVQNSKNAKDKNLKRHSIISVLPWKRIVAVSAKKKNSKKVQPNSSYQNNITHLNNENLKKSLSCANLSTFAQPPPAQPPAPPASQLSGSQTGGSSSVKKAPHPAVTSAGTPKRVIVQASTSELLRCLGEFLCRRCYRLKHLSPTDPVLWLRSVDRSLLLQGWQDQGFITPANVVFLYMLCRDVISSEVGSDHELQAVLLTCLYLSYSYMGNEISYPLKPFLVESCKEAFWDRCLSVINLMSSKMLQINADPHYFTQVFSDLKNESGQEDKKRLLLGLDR
Experimental: as §4

[3] = tested on: phosphorylation of RNA polymerase II at Ser2; assay: Washout experiment, RNA polymerase II Ser2 phosphorylation (immunoblot); assay type: cell-based, human; settings: VCaP cells; YJZ5118 100 nM
Experimental: as §1
Generally, after incubation with the compounds for the indicated time, the tested cells were washed by cold PBS buffer (Gibco) and lysed with RIPA buffer (ThermoFisher Scientific) supplemented with cOmplete protease inhibitor cocktail tablets (Sigma-Aldrich). The cell lysate was treated with ultrasonic for 20s, following a centrifugation of 14000 rpm at 4°C for 10 min. The protein concentration was measured by BCA protein assay (DC Protein Assay, BIO-RAD). An equal amount of protein was loaded to 4–12% Bis-Tris gels and underwent SDS-PAGE electrophoresis at 120 V for 90 min. The proteins were transferred to a nitrocellulose (NC) membrane (Thermo Scientific) and the membranes were blocked in 5% milk buffer at room temperature for 1h, followed by incubating with primary antibody at the recommended dilution at 4°C for overnight. The membranes were washed by PBST for three times and incubated with anti-rabbit or anti-mouse HRP-conjugated secondary antibody for 1h at room temperature, after which the membranes were imaged by Odyssey CLx Imager (LiCOR Biosciences).

CDK15/CycY = molecular target: T13, CDK15/CycY (Homo sapiens, UniProt Q96Q40); assay: CDK family panel, ADP-Glo; assay type: biochemical
T13 construct: ICE Bioscience Inc. (assay service)
Experimental: as §3

CDK2/CycE1 = molecular target: T14, CDK2/CycE1 (Homo sapiens, UniProt P24941); assay: CDK family panel, ADP-Glo; assay type: biochemical
T14 construct: ICE Bioscience Inc. (assay service)
Experimental: as §3

CDK9/CycT1 = molecular target: T15, CDK9/CycT1 (Homo sapiens, UniProt P50750); assay: CDK family panel, ADP-Glo; assay type: biochemical
T15 construct: ICE Bioscience Inc. (assay service)
Experimental: as §3

[4] = intravenous, i.v. 2.5 mg/kg (Table S5, intraperitoneal study)

T2 sequence (Q9H2K8 whole entry, species assumed): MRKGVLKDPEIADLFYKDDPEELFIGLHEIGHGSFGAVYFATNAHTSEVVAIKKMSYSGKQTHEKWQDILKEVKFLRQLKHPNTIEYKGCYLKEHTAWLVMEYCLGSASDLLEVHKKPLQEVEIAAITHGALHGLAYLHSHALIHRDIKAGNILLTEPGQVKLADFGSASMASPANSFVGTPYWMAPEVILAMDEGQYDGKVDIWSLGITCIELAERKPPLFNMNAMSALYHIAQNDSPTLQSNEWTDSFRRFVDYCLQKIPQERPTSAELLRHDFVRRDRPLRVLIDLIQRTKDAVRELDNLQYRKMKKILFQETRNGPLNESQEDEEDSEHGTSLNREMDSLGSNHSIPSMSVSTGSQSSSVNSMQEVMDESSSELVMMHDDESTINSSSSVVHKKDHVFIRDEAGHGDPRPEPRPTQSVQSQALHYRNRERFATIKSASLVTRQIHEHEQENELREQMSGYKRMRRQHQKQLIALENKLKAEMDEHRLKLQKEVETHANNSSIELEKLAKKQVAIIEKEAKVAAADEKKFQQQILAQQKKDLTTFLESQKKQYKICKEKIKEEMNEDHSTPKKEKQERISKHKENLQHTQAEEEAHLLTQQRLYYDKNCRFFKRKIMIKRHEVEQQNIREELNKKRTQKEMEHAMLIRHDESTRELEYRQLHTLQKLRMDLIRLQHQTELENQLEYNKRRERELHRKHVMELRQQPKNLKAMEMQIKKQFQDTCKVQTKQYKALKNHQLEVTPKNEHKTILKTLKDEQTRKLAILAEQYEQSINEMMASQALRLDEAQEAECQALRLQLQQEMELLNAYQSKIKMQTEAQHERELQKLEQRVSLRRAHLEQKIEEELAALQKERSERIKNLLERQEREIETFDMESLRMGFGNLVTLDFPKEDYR
T1 sequence (Q00526 whole entry, species assumed): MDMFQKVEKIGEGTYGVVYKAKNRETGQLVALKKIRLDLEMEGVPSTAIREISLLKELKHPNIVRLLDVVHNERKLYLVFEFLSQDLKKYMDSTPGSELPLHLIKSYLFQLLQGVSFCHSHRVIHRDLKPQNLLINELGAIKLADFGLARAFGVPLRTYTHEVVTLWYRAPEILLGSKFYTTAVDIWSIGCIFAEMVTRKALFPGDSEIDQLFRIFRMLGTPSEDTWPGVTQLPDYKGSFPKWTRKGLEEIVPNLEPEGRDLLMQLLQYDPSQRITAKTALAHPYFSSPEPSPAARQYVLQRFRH
T1 sequence (P24863 whole entry partner, species assumed): as the sequence (P24863 whole entry partner, species assumed) above

SMILES: C=CC(=O)Nc1cc(N(C(=O)NCc2ccccc2)[C@H]2CC[C@H](Nc3ccc(C#N)cn3)CC2)ccc1N1CCC(N(C)C)CC1 [YJZ5118, N-(5-(3-benzyl-1-((1r,4r)-4-((5-cyanopyridin-2-yl)amino)cyclohexyl)ureido)-2-(4-(dimethylamino)piperidin-1-yl)phenyl)acrylamide]
- IC50 (CDK3/CycC): > 10000 nM
- IC50 (TAOK3): > 10 µM
- IC50 (CDK1/CycE1): > 10000 nM
- IC50 (CDK3/CycE1): > 10000 nM
- IC50 (CDK14/CycY): > 10000 nM
- IC50 (CDK1/CycA2): > 10000 nM
- IC50 (CDK7/CycH/MAT1): 2260 nM
- AUC(0-t) [1, 4]: 1660 ng·h/mL
- Cmax [1, 4]: 3310 ng/mL
- Tmax [1, 4]: 0.08 h
- clearance [1, 4]: 25.6 mL/min/kg
- half-life [1, 4]: 1.21 h
- bioavailability ([1]; ip, 2.5 mg/kg, i.p. 2.5 mg/kg, read-out: F): 113%
- AUC(0-t) ([1]; ip, i.p. 2.5 mg/kg): 1860 ng·h/mL
- Cmax ([1]; ip, i.p. 2.5 mg/kg): 1580 ng/mL
- Tmax ([1]; ip, i.p. 2.5 mg/kg): 0.33 h
- half-life ([1]; ip, i.p. 2.5 mg/kg): 1.46 h
- clearance ([1]; iv, i.v. 2 mg/kg): 28.3 mL/min/kg
- AUC(0-t) ([1]; iv, i.v. 2.5 mg/kg (Figure 3A)): 1580 ng·h/mL
- Cmax ([1]; iv, i.v. 2.5 mg/kg (Figure 3A)): 2810 ng/mL
- Tmax ([1]; iv, i.v. 2.5 mg/kg (Figure 3A)): 0.08 h
- clearance ([1]; iv, i.v. 2.5 mg/kg (Figure 3A)): 28.3 mL/min/kg
- half-life ([1]; iv, i.v. 2.5 mg/kg (Figure 3A)): 1.29 h
- bioavailability ([1]; po, 10 mg/kg, p.o. 10 mg/kg, read-out: F (oral bioavailability)): 35.5%
- AUC(0-t) ([1]; po, p.o. 10 mg/kg): 2240 ng·h/mL
- Cmax ([1]; po, p.o. 10 mg/kg): 639 ng/mL
- Tmax ([1]; po, p.o. 10 mg/kg): 1.5 h
- half-life ([1]; po, p.o. 10 mg/kg): 2.32 h
- clearance rate, times lower than that of 14h ([1]; i.v.): 4 time
- F (oral bioavailability) ([1]; p.o. 10 mg/kg, 10 mg/kg): 35.5%
- cell growth inhibitory effect after washout (VCaP cells): maintained potent antiproliferative activity
- IC50 (CDK6/CycD1): 4480 nM
- IC50 (CDK4/CycD1): 3390 nM
- IC50 (CDK8/CycC): > 10000 nM
- IC50 (CDK5/p25NCK): > 10000 nM
- IC50 ([2]; Homo sapiens, VCaP, 120 h): < 40 nM
- IC50 ([2]; listed as 14k (YJZ5118)): 23.7 nM
- IC50 (MDA-MD-468): < 0.04 µM
- IC50 (DU145): < 0.04 µM
- IC50 (MFM223): < 0.04 µM
- IC50 (CB-AGPN): < 0.04 µM
- IC50 (CHLA10): < 0.04 µM
- IC50 (SK-BR-3): < 0.04 µM
- IC50 (CDK5/p35NCK): > 10000 nM
- RNA polymerase II Ser2 phosphorylation after washout [3]: complete loss of phosphorylation observed at 15 h after washout
- IC50 (CDK15/CycY): > 10000 nM
- IC50 (CDK2/CycE1): > 10000 nM
- IC50 (CDK9/CycT1): 4910 nM

— paper PMC12147761 (Journal of medicinal chemistry, 2025)
